A short description of this data set: Biodistribution of Tc-99m (III) complexes in guinea pigs. Format: in vivo.

Source text: Biodistribution Data of Selected Tc-99m (III) Complexes in Guinea Pigs

On to “trans-[1,2-bis[dihydro-2,2,5,5-tetramethyl-3(2H)furanthione-4-methyleneamino]ethane]-bis[tris(3-methoxypropyl)phosphine]technetium-99m (III) [Complex III]”, for which the “% Heart uptake” value runs as follows: (5 min) 1.1 %Injected dose/Organ; (60 min) 1.0 %Injected dose/Organ. The Heart/Blood runs as follows: (ratio at 5 min) 5.9; (ratio at 60 min) 3.5. Besides, the Heart/Liver runs as follows: (ratio at 5 min) 0.9; (ratio at 60 min) 1.5.
Consider “trans-[1-[dihydro-2,2,5,5-tetramethyl-3(2H)furanthione-4-methyleneamino]-2-[dihydro-2,2,5,5-tetramethyl-3(2H)furanone-4-methyleneaminoethane]bis[tris(3-methoxypropyl)phosphine]technetium99 m(III) [Complex II]”, for which the “% Heart uptake” value (5 min) came to 0.9 %Injected dose/Organ and the “% Heart uptake” value (60 min) was 0.8 %Injected dose/Organ. The Heart/Blood turned out to be 6.1 (ratio at 5 min) and 26.5 (ratio at 60 min). Besides, the Heart/Liver is, setting by setting: (ratio at 5 min) 1.6; (ratio at 60 min) 5.6.
As to “trans-[1,2-bis[dihydro-2,2,5,5-tetramethyl-3(2H)furanone-4-methyleneamino]ethane]bis-[tris(3-methoxypropyl)phosphine]technetium-99 m(III) [Complex I]”, the “% Heart uptake” value is 0.8 %Injected dose/Organ (5 min) and 0.9 %Injected dose/Organ (60 min). In addition, the Heart/Blood reads like this: (ratio at 5 min) 4.6; (ratio at 60 min) 35.6. For the same substance, the Heart/Liver (ratio at 5 min) turned out to be 1.5 and the Heart/Liver (ratio at 60 min) was 6.6.
With “trans-[1,2-bis[dihydro-2,2,5,5-tetramethyl-3(2H)furanone-4-methyleneamino]ethane]bis-tris(2-(2-(1,3-dioxanyl))]ethylphosphine]technetium-99m(III) [Complex IV]”, the “% Heart uptake” value is listed as 0.8 %Injected dose/Organ (5 min) and 0.9 %Injected dose/Organ (60 min). Besides, the Heart/Blood is, setting by setting: (ratio at 5 min) 5.4; (ratio at 60 min) 58.6. In addition, the Heart/Liver by setting is: (ratio at 5 min) 1.2; (ratio at 60 min) 3.0.

(Values after patent US5112595A, “99MTC(III) myocardial imaging agents and method of use” (Mallinckrodt Medical, Inc., priority 1990, dated 1992).)
